Test results published in patent US9018142B2, “Oil-field biocide method utilizing a peracid” (PeroxyChem LLC, priority 2008, dated 2015).

Columns and labels:
[1] = tested on: Desulfotomaculum nigrificans (ATCC 19858); test: D. nigrificans growth after biocide exposure in 0.1 wt % polyacrylamide; type: cell-based; parameters: key to D. nigrificans Growth Results / D. nigrificans Growth Results, Neutral Control: positive (+); negative (NEG)
Description: Example 2 illustrates the biocidal efficacy of peracetic acid, compared with glutaraldehyde, against another strain of sulfur-reducing bacteria, Desulfotomaculum nigrificans, present in an aqueous solution also containing 0.1 wt % polyacrylamide polymer. A range of peracetic acid and glutaraldehyde concentrations were evaluated for biocidal efficacy: 1, 5, 10, 25, 50, 75, 100, 200 and 300 ppm peracetic acid and the same concentrations for glutaraldehyde (except that 300 ppm was omitted).
The dilute aqueous polyacrylamide was prepared using an aqueous 50 wt % polyacrylamide solution (Sigma-Aldrich, St. Louis, Mo.) and diluting the polyacrylamide with deionized water to obtain 0.1 wt % polyacrylamide in water. The peracetic acid was Vigor Ox® SP-15 antimicrobial agent, containing about 15-17 wt % peracetic acid, 9-11 wt % hydrogen peroxide and 33-38 wt % acetic acid in water (FMC Corporation, Philadelphia, Pa.), and this peracetic acid solution was diluted to the desired concentration within the range 1 to 300 ppm peracetic acid for the various evaluations. The glutaraldehyde used in this Example 2 was a 50 wt % glutaraldehyde solution in water (Alfa Aesar, Ward Hill, Mass.), diluted with deionized water to the desired concentration within the range 1 to 200 ppm for the evaluations.
The bacterial strain used in this Example 2 was the sulfur-reducing bacterium Desulfotomaculum nigrificans (ATCC 19858 from American Type Culture Collection, Manassas, Va.). A working inoculum for each of the three studies described below was prepared by the following procedure. Baar's medium for sulfate reducers was inoculated with D. nigrificans from a cryogenic tube, grown at 50° C. anaerobically for a period sufficient to observe good growth of the culture (evident by blackening of the tube), between 2-7 days. This D. nigrificans culture was used as the working inoculum for each of the studies described below.
The methodology used in this Example 2 was as follows. A sterilized screw-cap tube containing 9.5-10 ml 0.1 wt % polyacrylamide was dosed with an appropriate amount of peracetic acid (or glutaraldehyde) to provide the desired peracetic acid (or glutaraldehyde) concentration (e.g., 1 to 300 ppm peracetic acid) in 10 ml 0.1 wt % polyacrylamide required for the study. The tubes were then vortex mixed and 0.1 ml D. nigrificans inoculum was added and again vortex mixed. The initial inoculation level was estimated as about 2.6×10^6 CFU/tube. Timing of the exposure period (e.g., 1 minute to 1 day) was begun when the D. nigrificans inoculum was added.
After the exposure period had elapsed, 1 ml of the treated mixture was added to a second tube containing 9 ml of Dey-Engley (D/E) neutralizing broth and vortex mixed. After about 5-8 minutes had elapsed, 1 ml of the neutralized solution was added to yet another tube containing 9 ml of Baar's modified medium for sulfate reducers. This tube was vortex mixed and then incubated anaerobically at 50° C., with the screw cap loosened, using an AnaeroPack (Mitsubishi Gas Chemical America, Inc., New York, N.Y.) in an anaerobic jar.
Growth controls were also carried out in the studies of this Example 2, using the following procedure. A screw-cap tube containing 10 ml of 0.1 wt % polyacrylamide was inoculated with 0.1 ml of D. nigrificans culture and then diluted in D/E neutralizing broth after the exposure period, vortex mixed, and then diluted in Baar's medium as described above. The control tubes were incubated at 50° C., also as described above, and monitored for growth after two days.
Neutralizing controls were also carried out for the peracetic acid and glutaraldehyde treatment agents to confirm that D/E neutralizing broth (which contains sodium bisulfite and […] among its neutralizing agents) was capable of neutralizing either peracetic acid or glutaraldehyde at the highest concentration used in each study. […]

[2] = at 25° C.; cited from earlier work

Peracetic acid
some biocidal activity: biocidal activity against D. nigrificans ([1]; first study, 50 ppm, one hour, NEG for one of the two replicates)
+: D. nigrificans Growth Results ([1]; first study, 1 ppm, 1 minute exposure) | D. nigrificans Growth Results ([1]; first study, 1 ppm, 1 hour exposure) | D. nigrificans Growth Results ([1]; first study, 1 ppm, 1 day exposure) | D. nigrificans Growth Results ([1]; first study, 5 ppm, 1 minute exposure) | D. nigrificans Growth Results ([1]; first study, 5 ppm, 1 hour exposure) | D. nigrificans Growth Results ([1]; first study, 5 ppm, 1 day exposure) | D. nigrificans Growth Results ([1]; first study, 10 ppm, 1 minute exposure) | D. nigrificans Growth Results ([1]; first study, 10 ppm, 1 hour exposure) | D. nigrificans Growth Results ([1]; first study, 10 ppm, 1 day exposure) | D. nigrificans Growth Results ([1]; first study, 25 ppm, 1 minute exposure) | D. nigrificans Growth Results ([1]; first study, 25 ppm, 1 hour exposure) | D. nigrificans Growth Results, Neutral Control ([1]; first study, 50 ppm biocide neutralized in D/E neutralizing broth before inoculation) | D. nigrificans Growth Results ([1]; first study, 50 ppm, 1 minute exposure) | D. nigrificans Growth Results ([1]; second study, 50 ppm, 10 minutes exposure) | D. nigrificans Growth Results ([1]; second study, 50 ppm, 1 hour exposure) | D. nigrificans Growth Results ([1]; second study, 75 ppm, 10 minutes exposure) | D. nigrificans Growth Results ([1]; second study, 100 ppm, 10 minutes exposure) | D. nigrificans Growth Results, Neutral Control ([1]; second study, 200 ppm biocide neutralized in D/E neutralizing broth before inoculation) | D. nigrificans Growth Results ([1]; second study, 200 ppm, 10 minutes exposure) | D. nigrificans Growth Results ([1]; third study, 100 ppm, 10 minutes exposure) | D. nigrificans Growth Results ([1]; third study, 200 ppm, 10 minutes exposure) | D. nigrificans Growth Results, Neutral Control ([1]; third study, 300 ppm peracetic acid neutralized in D/E neutralizing broth before inoculation)
provided biocidal control: biocidal control of D. nigrificans ([1]; first study, 25 ppm and 50 ppm, 1 day exposure) | biocidal control of D. nigrificans ([1]; second study, 50, 75, 100 and 200 ppm, 1 day exposure) | biocidal control of D. nigrificans ([1]; third study, 60 minutes, 100 ppm (2 of 3 replicates), 200 ppm, 300 ppm (2 of 3 replicates))
about 8.2: pKa [2]
NEG and +: D. nigrificans Growth Results ([1]; first study, 50 ppm, 1 hour exposure) | D. nigrificans Growth Results ([1]; second study, 100 ppm, 1 hour exposure) | D. nigrificans Growth Results ([1]; third study, 100 ppm, 60 minutes exposure) | D. nigrificans Growth Results ([1]; third study, 300 ppm, 60 minutes exposure)
exhibited biocidal control: biocidal control of D. nigrificans ([1]; third study, ten minutes, 300 ppm)
+ and NEG: D. nigrificans Growth Results ([1]; third study, 100 ppm, 30 minutes exposure)
did not exhibit biocidal activity: biocidal activity against D. nigrificans ([1]; third study, ten minutes, 100 and 200 ppm)
demonstrated biocidal activity: biocidal activity against D. nigrificans ([1]; second study, 1 hour exposure, 75 ppm, 100 ppm (1 of 2 replicates), 200 ppm) | biocidal activity against D. nigrificans ([1]; third study, 30 minutes, 100 ppm (2 of 3 replicates), 200 ppm, 300 ppm)
no biocidal control: biocidal control of D. nigrificans ([1]; first study, 1 ppm, 5 ppm or 10 ppm, any of the exposure times)
no biocidal activity: biocidal activity against D. nigrificans ([1]; second study, 10 minutes exposure, any of the concentrations)
NEG: D. nigrificans Growth Results ([1]; first study, 25 ppm, 1 day exposure) | D. nigrificans Growth Results ([1]; first study, 50 ppm, 1 day exposure) | D. nigrificans Growth Results ([1]; second study, 50 ppm, 1 day exposure) | D. nigrificans Growth Results ([1]; second study, 75 ppm, 1 hour exposure) | D. nigrificans Growth Results ([1]; second study, 75 ppm, 1 day exposure) | D. nigrificans Growth Results ([1]; second study, 100 ppm, 1 day exposure) | D. nigrificans Growth Results ([1]; second study, 200 ppm, 1 hour exposure) | D. nigrificans Growth Results ([1]; second study, 200 ppm, 1 day exposure) | D. nigrificans Growth Results ([1]; third study, 200 ppm, 30 minutes exposure) | D. nigrificans Growth Results ([1]; third study, 200 ppm, 60 minutes exposure) | D. nigrificans Growth Results ([1]; third study, 300 ppm, 10 minutes exposure) | D. nigrificans Growth Results ([1]; third study, 300 ppm, 30 minutes exposure)
